Laboratory results: patent EP0325131A2, “Pyrimidine derivatives as performance stimulating agents” (BAYER AG, priority 1988, dated 1989)

Test system: Weibliche Laborratten
Experiment: Rat feeding trial (relative weight gain versus untreated control)
Assay type: in vivo, Laborratten vom Typ SPF Wistar
Conditions: female SPF Wistar rats 90-110 g, 100 ppm active substance in feed ad lib, 13 days, relative to untreated control
From the text: Weibliche Laborratten 90-110 g schwer vom Typ SPF Wistar (Züchtung Hagemann) werden ad lib mit Standard Rattenfutter, das mit der gewünschten Menge Wirkstoff versetzt ist, gefüttert. Jeder Versuchsansatz wird mit Futter der identischen Charge durchgeführt, so daß Unterschiede in der Zusammensetzung des Futters die Vergleichbarkeit der Ergebnisse nicht beeinträchtigen können.
Die Ratten erhalten Wasser ad lib.
Jeweils 12 Ratten bilden eine Versuchsgruppe und werden mit Futter, das mit der gewünschten Menge Wirkstoff versetzt ist, gefüttert. Eine Kontrollgruppe erhält Futter ohne Wirkstoff. Die Versuchsgruppen werden so zusammengestellt, daß das durchschnittliche Körpergewicht sowie die Streuung in den Körpergewichten der Ratten in jeder Versuchsgruppe gleich ist, so daß eine Vergleichbarkeit der Versuchsgruppen untereinander gewährleistet ist.
Die Tiere werden vor Versuchsbeginn 2 Tage an die neuen Haltungsbedingungen adaptiert, während dieser Zeit wird Futter ohne Wirkstoffzusatz gegeben. Danach erhalten die Tiere 13 Tage lang Futter, das Wirkstoff enthält. Es wird die relative Gewichtszunahme im Verhältnis zur unbehandelten Kontrolle bestimmt.

CC(C)(C)NCC(O)c1cnc(N)nc1 (stereo not shown) [compound 1, 1-(2-Amino-5-pyrimidinyl)-2-(tert.-butylamino)-ethanol]
relative Gewichtszunahme: 30%
